From patent US8772446B2, “Bifunctional chelating agents” (Nordion (Canada) Inc., priority 2010, dated 2014)

Legend:
[1] = Solution thermodynamics: formation constants (log KML) and pM of Ga(III) complexes, potentiometric titration; format: physicochemical; settings: Ga(III) complex; ligand-ligand competition with EDTA, potentiometric titration, 25 °C, 0.16 M NaCl
Protocol: A more relevant indicator of the extent to which a metal complex is formed in solution is given by pM (−log free M) which considers the influence of ligand basicity and chelate hydrolysis.
Carbonate-free solutions of the titrant, NaOH, were prepared by dilution of 50% solution (Acros Organics) with freshly boiled MQ water under a stream of purified nitrogen gas. The solution was standardized with potassium acid phthalate and the extent of carbonate accumulation was periodically checked by titration with a standard hydrochloric acid solution and determination of the corresponding Gran titration plot.^47 Gallium ion solutions were prepared by dilution of the appropriate atomic absorption (AA) standard. The exact amount of acid present in the gallium standard was determined by titration of an equimolar solution of Ga and Na2H2EDTA. The amount of acid present was determined by Gran's method.^47
Data were collected in triplicate using PC Control (Version 6.0.91, Metrohm). The titration apparatus consisted of a 10 mL water jacketed glass vessel maintained at 25.0±0.1° C. (Julabo waterbath). Prior to and during the course of the titration, a blanket of nitrogen, passed through 10% NaOH to exclude any CO2, was maintained over the sample solution. The ionic strength was maintained at 0.16 M using NaCl. Prior to each potentiometric equilibrium study, the electrode was calibrated using standard HCl solutions. Calibration data were analysed by standard computer treatment provided within the program MacCalib to obtain the calibration parameters E0 and pKw.
As the degree of formation of Ga(III) complexes at low pH (<2) was too high for the determination of stability constants by use of direct potentiometry, the ligand-ligand competition method using Na2H2EDTA was also performed.

[2] = Biodistribution in female ICR mice; format: in vivo
Protocol: The protocol used in the animal studies was approved by the Institutional Animal Care Committee of the University of British Columbia and was performed in accordance with the Canadian Council on Animal Care Guidelines. A total of 16 female ICR (20-30 g) mice were used for the animal study of each of the three compounds. ^67Ga(dedpa)^+, ^67Ga(66)^+, or ^67Ga(69)^+ was prepared as described above and then diluted in phosphate buffered saline to a concentration of 100 μCi/mL. Each mouse was i.v. injected with ˜10 μCi (100 μL) of the ^67Ga complex and then sacrificed by CO2 inhalation at 30 min, 1 h, 2 h, or 4 h after injection (n=4 at each time point). Blood was collected by cardiac puncture and plasma was separated from whole blood by centrifuging (2500 rpm, 15 min). Urine was collected from the bladder. Tissues collected included kidney, liver, spleen, femur, muscle, heart, lung, intestine and brain. Tissues were weighed and counted on a gamma counter and the counts were converted to % injected dose/gram (% ID/g). Tables 4-6 show the biodistibution data of ^67Ga(dedpa)^+, ^67Ga(66)^+ and ^67Ga(69)^+, respectively, in female ICR mice. FIG. 4 illustrates biodistribution over 4 h of ^67Ga(dedpa)^+ in female ICR mice, and FIG. 5 illustrates biodistribution of ^67Ga(66)^+ (upper) and ^67Ga(69)^+ (lower) in female ICR mice over 4 h; complete data for urine are shown also in separate diagrams to the right.

[3] = Serum stability studies done in vitro (^67Ga); format: in vitro ADME
human apo-transferrin = human apo-transferrin (Homo sapiens, UniProt P02787); assay: ^67Ga complex stability: 2-h competition with excess human apo-transferrin, HPLC; settings: ^67Ga complex, up to 2 h
Chain of human apo-transferrin (P02787 20-698): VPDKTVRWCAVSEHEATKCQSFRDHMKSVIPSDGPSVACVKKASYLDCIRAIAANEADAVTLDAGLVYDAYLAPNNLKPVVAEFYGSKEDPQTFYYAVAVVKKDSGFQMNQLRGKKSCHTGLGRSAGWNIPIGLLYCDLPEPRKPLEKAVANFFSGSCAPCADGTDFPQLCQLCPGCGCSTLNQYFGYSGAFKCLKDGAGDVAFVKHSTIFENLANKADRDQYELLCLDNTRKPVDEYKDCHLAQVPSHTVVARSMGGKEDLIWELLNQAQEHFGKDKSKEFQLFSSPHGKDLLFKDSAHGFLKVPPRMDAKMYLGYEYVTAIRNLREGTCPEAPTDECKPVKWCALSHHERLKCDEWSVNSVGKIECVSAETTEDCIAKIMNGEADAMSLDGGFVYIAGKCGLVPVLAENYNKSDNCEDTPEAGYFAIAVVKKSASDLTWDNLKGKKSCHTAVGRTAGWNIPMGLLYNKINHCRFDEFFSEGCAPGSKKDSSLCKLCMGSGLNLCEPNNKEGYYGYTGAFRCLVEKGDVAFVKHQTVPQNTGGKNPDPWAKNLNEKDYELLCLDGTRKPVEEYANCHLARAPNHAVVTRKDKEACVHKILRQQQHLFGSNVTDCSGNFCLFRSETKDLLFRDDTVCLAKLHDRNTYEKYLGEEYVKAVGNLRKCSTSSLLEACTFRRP
Protocol: FIG. 13 illustrates stacked labelling traces of ^67Ga(dedpa)^+ of 2 h stability experiment against apo-transferrin (gradient: A: NaOAc buffer, pH 4.5, B: MeOH. 0-100% B linear gradient 20 min).

O=C(O)c1cccc(CNCCNCc2cccc(C(=O)O)n2)n1 [^67Ga(dedpa)^+, metal not drawn]
log KML [1]: 28.11(8) | Biodistribution, Brain, 30 min ([2]; Brain, 30 min after i.v. injection, mean ± SD, 4 animals): 0.264 ± 0.132 % ID/g | Biodistribution, Brain, 1 h ([2]; Brain, 1 h after i.v. injection, mean ± SD, 4 animals): 0.246 ± 0.123 % ID/g | Biodistribution, Brain, 2 h ([2]; Brain, 2 h after i.v. injection, mean ± SD, 4 animals): 0.213 ± 0.106 % ID/g | Biodistribution, Brain, 4 h ([2]; Brain, 4 h after i.v. injection, mean ± SD, 4 animals): 0.139 ± 0.069 % ID/g | Biodistribution, Femur, 30 min ([2]; Femur, 30 min after i.v. injection, mean ± SD, 4 animals): 2.180 ± 1.090 % ID/g | Biodistribution, Femur, 1 h ([2]; Femur, 1 h after i.v. injection, mean ± SD, 4 animals): 2.136 ± 1.068 % ID/g | Biodistribution, Femur, 2 h ([2]; Femur, 2 h after i.v. injection, mean ± SD, 4 animals): 1.893 ± 0.946 % ID/g | Biodistribution, Femur, 4 h ([2]; Femur, 4 h after i.v. injection, mean ± SD, 4 animals): 2.218 ± 1.109 % ID/g | Biodistribution, Heart, 30 min ([2]; Heart, 30 min after i.v. injection, mean ± SD, 4 animals): 2.645 ± 1.323 % ID/g | Biodistribution, Heart, 1 h ([2]; Heart, 1 h after i.v. injection, mean ± SD, 4 animals): 2.490 ± 1.245 % ID/g | Biodistribution, Heart, 2 h ([2]; Heart, 2 h after i.v. injection, mean ± SD, 4 animals): 2.412 ± 1.206 % ID/g | Biodistribution, Heart, 4 h ([2]; Heart, 4 h after i.v. injection, mean ± SD, 4 animals): 2.004 ± 1.002 % ID/g | Biodistribution, Intestine, 30 min ([2]; Intestine, 30 min after i.v. injection, mean ± SD, 4 animals): 2.099 ± 1.050 % ID/g | Biodistribution, Intestine, 1 h ([2]; Intestine, 1 h after i.v. injection, mean ± SD, 4 animals): 2.123 ± 1.062 % ID/g | Biodistribution, Intestine, 2 h ([2]; Intestine, 2 h after i.v. injection, mean ± SD, 4 animals): 1.995 ± 0.998 % ID/g | Biodistribution, Intestine, 4 h ([2]; Intestine, 4 h after i.v. injection, mean ± SD, 4 animals): 1.990 ± 0.995 % ID/g | Biodistribution, Kidney, 30 min ([2]; Kidney, 30 min after i.v. injection, mean ± SD, 4 animals): 8.089 ± 4.009 % ID/g | Biodistribution, Kidney, 1 h ([2]; Kidney, 1 h after i.v. injection, mean ± SD, 4 animals): 7.827 ± 3.914 % ID/g | Biodistribution, Kidney, 2 h ([2]; Kidney, 2 h after i.v. injection, mean ± SD, 4 animals): 9.149 ± 4.575 % ID/g | Biodistribution, Kidney, 4 h ([2]; Kidney, 4 h after i.v. injection, mean ± SD, 4 animals): 8.301 ± 4.150 % ID/g | Biodistribution, Liver, 30 min ([2]; Liver, 30 min after i.v. injection, mean ± SD, 4 animals): 3.702 ± 1.851 % ID/g | Biodistribution, Liver, 1 h ([2]; Liver, 1 h after i.v. injection, mean ± SD, 4 animals): 3.695 ± 1.847 % ID/g | Biodistribution, Liver, 2 h ([2]; Liver, 2 h after i.v. injection, mean ± SD, 4 animals): 3.173 ± 1.586 % ID/g | Biodistribution, Liver, 4 h ([2]; Liver, 4 h after i.v. injection, mean ± SD, 4 animals): 2.736 ± 1.368 % ID/g | Biodistribution, Lung, 30 min ([2]; Lung, 30 min after i.v. injection, mean ± SD, 4 animals): 4.878 ± 2.439 % ID/g | Biodistribution, Lung, 1 h ([2]; Lung, 1 h after i.v. injection, mean ± SD, 4 animals): 4.896 ± 2.448 % ID/g | Biodistribution, Lung, 2 h ([2]; Lung, 2 h after i.v. injection, mean ± SD, 4 animals): 4.846 ± 2.423 % ID/g | Biodistribution, Lung, 4 h ([2]; Lung, 4 h after i.v. injection, mean ± SD, 4 animals): 3.260 ± 1.630 % ID/g | Biodistribution, Muscle, 30 min ([2]; Muscle, 30 min after i.v. injection, mean ± SD, 4 animals): 1.210 ± 0.605 % ID/g | Biodistribution, Muscle, 1 h ([2]; Muscle, 1 h after i.v. injection, mean ± SD, 4 animals): 1.153 ± 0.576 % ID/g | Biodistribution, Muscle, 2 h ([2]; Muscle, 2 h after i.v. injection, mean ± SD, 4 animals): 1.092 ± 0.546 % ID/g | Biodistribution, Muscle, 4 h ([2]; Muscle, 4 h after i.v. injection, mean ± SD, 4 animals): 1.127 ± 0.564 % ID/g | Biodistribution, Serum, 30 min ([2]; Serum, 30 min after i.v. injection, mean ± SD, 4 animals): 16.067 ± 8.033 % ID/g | Biodistribution, Serum, 1 h ([2]; Serum, 1 h after i.v. injection, mean ± SD, 4 animals): 9.047 ± 4.524 % ID/g | Biodistribution, Serum, 2 h ([2]; Serum, 2 h after i.v. injection, mean ± SD, 4 animals): 12.042 ± 6.021 % ID/g | Biodistribution, Serum, 4 h ([2]; Serum, 4 h after i.v. injection, mean ± SD, 4 animals): 12.235 ± 6.118 % ID/g | Biodistribution, Spleen, 30 min ([2]; Spleen, 30 min after i.v. injection, mean ± SD, 4 animals): 1.366 ± 0.683 % ID/g | Biodistribution, Spleen, 1 h ([2]; Spleen, 1 h after i.v. injection, mean ± SD, 4 animals): 1.357 ± 0.679 % ID/g | Biodistribution, Spleen, 2 h ([2]; Spleen, 2 h after i.v. injection, mean ± SD, 4 animals): 1.273 ± 0.637 % ID/g | Biodistribution, Spleen, 4 h ([2]; Spleen, 4 h after i.v. injection, mean ± SD, 4 animals): 0.989 ± 0.495 % ID/g | Excretion route (in words) ([2]; mice, i.v.): excreted mainly through the kidneys | Time to clearance from background tissue, such as muscle ([2]; mice, i.v.): ≤ 30 min | Bone uptake (in words) ([2]; mice, i.v., indicator for complex stability): low uptake in bone | Serum stability in vitro (in words) [3]: stable to transchelation by serum proteins | Complex stability against apo-transferrin (in words) (human apo-transferrin; listed as 67/68Ga(dedpa)^+): No decomposition was detected | Complex stability against apo-transferrin (in words) (human apo-transferrin; listed as 67Ga(dedpa)^+): fully intact | Complex stability against apo-transferrin (in words) (human apo-transferrin; listed as Ga(dedpa)^+): no decomposition was detected
